Measurements as given in ChEMBL document CHEMBL2074532, “P-glycoprotein increases the efflux of the androgen dihydrotestosterone and reduces androgen responsive gene activity in prostate tumor cells” (Prostate, 2004).

Biological target: ATP-dependent translocase ABCB1 (Homo sapiens, UniProt P08183)
Assay: TP_TRANSPORTER: cell accumulation in P-gp transfected LNCaP cells
Assay type: functional, cell-based

ATP-dependent translocase ABCB1, sequence (P08183 whole entry): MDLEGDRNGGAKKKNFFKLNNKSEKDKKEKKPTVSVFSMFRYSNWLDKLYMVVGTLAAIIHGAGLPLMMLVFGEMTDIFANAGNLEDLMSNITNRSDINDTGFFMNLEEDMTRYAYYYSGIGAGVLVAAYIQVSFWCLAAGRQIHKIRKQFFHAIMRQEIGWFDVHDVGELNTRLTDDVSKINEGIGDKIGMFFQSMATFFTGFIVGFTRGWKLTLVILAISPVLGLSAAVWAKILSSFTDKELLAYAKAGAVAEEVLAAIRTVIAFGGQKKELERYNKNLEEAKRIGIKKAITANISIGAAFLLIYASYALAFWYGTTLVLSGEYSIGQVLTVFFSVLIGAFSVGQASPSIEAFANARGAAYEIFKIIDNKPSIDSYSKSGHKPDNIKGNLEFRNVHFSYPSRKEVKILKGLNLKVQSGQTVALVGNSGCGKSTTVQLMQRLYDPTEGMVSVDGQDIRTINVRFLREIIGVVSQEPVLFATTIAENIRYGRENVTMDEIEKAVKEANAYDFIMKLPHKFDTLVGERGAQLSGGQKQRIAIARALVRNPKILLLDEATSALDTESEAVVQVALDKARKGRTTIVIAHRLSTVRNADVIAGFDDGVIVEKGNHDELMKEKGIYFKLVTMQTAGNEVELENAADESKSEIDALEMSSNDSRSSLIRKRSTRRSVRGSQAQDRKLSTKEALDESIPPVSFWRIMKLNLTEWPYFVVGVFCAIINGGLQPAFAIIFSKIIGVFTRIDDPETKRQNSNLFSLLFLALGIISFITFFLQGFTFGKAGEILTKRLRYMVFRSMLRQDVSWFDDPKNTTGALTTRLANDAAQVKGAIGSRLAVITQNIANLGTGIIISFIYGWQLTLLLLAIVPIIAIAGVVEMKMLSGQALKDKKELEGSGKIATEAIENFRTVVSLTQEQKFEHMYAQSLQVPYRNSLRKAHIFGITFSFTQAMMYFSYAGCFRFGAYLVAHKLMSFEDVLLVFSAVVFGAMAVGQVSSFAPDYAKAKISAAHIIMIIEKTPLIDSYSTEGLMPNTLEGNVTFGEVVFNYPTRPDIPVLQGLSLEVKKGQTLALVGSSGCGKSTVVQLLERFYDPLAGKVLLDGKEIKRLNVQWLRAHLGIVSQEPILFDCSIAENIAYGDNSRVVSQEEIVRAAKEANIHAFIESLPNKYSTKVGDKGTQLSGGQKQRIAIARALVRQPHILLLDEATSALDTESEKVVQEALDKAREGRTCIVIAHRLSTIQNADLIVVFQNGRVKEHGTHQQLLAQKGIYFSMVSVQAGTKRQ

Row | Structure (SMILES) | Activity
1 | C[C@]12CCC(=O)C[C@@H]1CC[C@@H]1[C@@H]2CC[C@]2(C)[C@@H](O)CC[C@@H]12 [STANOLONE] | substrate [+]
2 | CC[C@]1(O)C[C@@H]2CN(CCc3c([nH]c4ccccc34)[C@@](C(=O)OC)(c3cc4c(cc3OC)N(C)[C@H]3[C@@](O)(C(=O)OC)[C@H](OC(C)=O)[C@]5(CC)C=CCN6CC[C@]43[C@@H]65)C2)C1 [VINBLASTINE] | substrate [+]
